Test results as given in PMC6731340, “Evaluation of synergy between host and pathogen-directed therapies against intracellular Leishmania donovani” (International Journal for Parasitology: Drugs and Drug …, 2019).
Like-named read-outs stand apart in the source and are kept apart here.

How the values were obtained:
[1] = system: L. donovani intracellular amastigotes; assay: Modified resazurin-based viability analysis of L. donovani in infected macrophages; format: cell-based, Leishmania donovani; conditions: for Selectivity (LD50/IC50): LD50 macrophages / resazurin intracellular IC50; for IC50: Leishmania donovani, BMDM, infected BMDMs, 72 h
Procedure: BMDMs (1 × 10^5 per one 96-well) infected overnight with stationary phase L. donovani promastigotes (MOI 1:10), were washed (3×) with serum free DMEM, and incubated with compounds for 72 h. Then, parasites were rescued with BMDM controlled lysis, modified from a previous report ([Kiderlen and Kaye, 1990]). In brief, cells were washed with serum-free HEPES-buffered RPMI (HEPES-RPMI; 1×), lysed (20 min) with HEPES-RPMI (100 μL/well) with 0.008% SDS (w/v), SDS neutralized with HEPES-RPMI with 17% FBS (v/v; 150 μL/well) and placed in an air-tight container (25 °C for 96 h). Resazurin [0.02% (w/v); 25 μL] was added, incubated (24 h) and was assessed fluorometrically.

[2] = system: L. donovani axenic amastigotes; assay: Resazurin-based drug susceptibility assay on axenic amastigotes; format: cell-based; conditions: Leishmania donovani, 72 h drug at 37 °C
Procedure: (§1) Leishmania donovani strain (ATCC 30030; ATCC; Manassas VA) was used in all studies and grown via manufacture's specification. The promastigotes screening were performed as described previously, with few modifications ([Kulshrestha et al., 2013]). Late log-phase promastigotes (1 × 10^5 per one 96-well) were incubated with drug for 72 h at 25 °C. Resazurin was added [0.002% (w/v)], incubated for 24 h and assessed fluorometrically (ex: 544 nm/em: 590 nm; SpectraMax M2, Molecular Devices, Sunnyvale, CA). L. donovani axenic amastigotes were differentiated as described previously, with little modification ([Ephros et al., 1997]). Late log-phase promastigotes were differentiated into axenic amastigotes in a low pH (6.3) medium for 96 h at 37 °C. Fully differentiated axenic amastigotes (2 × 10^5 per one 96-well) were incubated 72 h with drug at 37 °C, and resazurin assay was then performed as indicated above.

[3] = system: Mouse bone marrow-derived macrophages (BMDMs); assay: LDH mammalian cytotoxicity assay; conditions: 50% Lethal Dose for BMDMs
Excerpt: (§2) Mouse bone marrow-derived macrophages (BMDMs) isolation from BALB/c mice and culture was done as described previously ([Weischenfeldt and Porse, 2008]), and approved by the Animal Care and Use Committees at UNC. A lactate dehydrogenase (LDH) assay (Thermo Fisher Scientific, Grand Island, NY) was used to determine cytotoxicity per manufacturer's directions.

[4] = system: L. donovani intracellular amastigotes; assay: Image-based (Giemsa) evaluation of intracellular anti-leishmanial activity in infected BMDMs; format: cell-based; conditions: Leishmania donovani, BMDM, 72 h, Giemsa stain
Procedure: An image-based anti-leishmanial assay was used as described previously with slight modification ([Collier et al., 2016]). BMDMs seeded on round glass coverslips (5 × 10^5 cells per one 24-well) were allowed to adhere overnight, infected with stationary phase L. donovani promastigotes (MOI 1:10), incubated overnight, and washed (3×) with warmed serum-free media. Compounds were added, incubated for 72 h, washed (3×) with PBS, fixed with methanol and stained with Giemsa stain (1:20 in H2O). An EVOS XL (100×, Thermo Fisher Scientific) was used for imaging. L. donovani amastigotes per 100 macrophages was determined, in duplicate, and in a blinded fashion.

[5] = system: L. donovani extracellular promastigotes; assay: Resazurin-based drug susceptibility assay on promastigotes; format: cell-based; conditions: Leishmania donovani, 72 h drug at 25 °C
Procedure: as §1

[6] = system: Mouse bone marrow-derived macrophages (BMDMs); conditions: BALB/c
Excerpt: as §2

VL patients = system: VL patients; parameters: method as in Sundar et al., 2008; conditions: AMB alone; ref Sundar et al., 2008; cited from earlier work
promastigotes = system: promastigotes; parameters: method as in Pan et al., 2012; conditions: ref Pan et al., 2012; read-out: IC50, direct activity against promastigotes; cited from earlier work
[7] = system: intracellular L. mexicana; parameters: method as in Pan et al., 2012; conditions: ref Pan et al., 2012; read-out: IC50, anti-leishmanial activity against intracellular L. mexicana; cited from earlier work
[8] = parameters: method as in earlier work; conditions: ref Mishra and Singh, 2013; Perez-Victoria et al., 2006; Seifert et al., 2007; cited from earlier work
L. donovani amastigotes = system: L. donovani amastigotes; parameters: method as in De Muylder et al., 2011; conditions: intracellular vs axenically grown amastigotes; ref De Muylder et al., 2011; cited from earlier work

| Compound | Selectivity (LD50/IC50) [1] | IC50 [1] [µM] | IC50 [2] [µM] | Cytotoxicity LD50 [3] [µM] | IC50 [4] [µM] | IC50 [5] [µM] | Cytotoxicity LD50 [6] [µM] | VL patients cured (VL patients) [%] | IC50 (promastigotes) [nM] | IC50 [7] [nM] | drug half-life [8] [h] | anti-leishmanial activity (L. donovani amastigotes) |
| --- | --- | --- | --- | --- | --- | --- | --- | --- | --- | --- | --- | --- |
| NCC(=O)Nc1ccc(-n2nc(C(F)(F)F)cc2-c2ccc3c(ccc4ccccc43)c2)cc1 [AR-12] | 8 | 1.44 ± 0.08 | 3.45 ± 0.07 | 11.1 ± 2.5 | 1.18 ± 0.18 | 3.3 ± 0.42 |  |  |  |  |  |  |
| C[C@@H]1[C@H](O)[C@@H](C)/C=C/C=C/C=C/C=C/C=C/C=C/C=C/[C@H](O[C@@H]2O[C@H](C)[C@@H](O)[C@H](N)[C@@H]2O)C[C@@H]2O[C@](O)(C[C@@H](O)C[C@@H](O)[C@H](O)CC[C@@H](O)C[C@@H](O)CC(=O)O[C@H]1C)C[C@H](O)[C@H]2C(=O)O [Amphotericin B, amphotericin B] | 1167 | 0.033 ± 0.011 | 0.049 ± 0.005 |  | 0.024 ± 0.001 | 0.047 ± 0.004 | 38.5 ± 4.95 | 91 |  |  |  |  |
| CC(=O)C1=CC[C@H]2[C@@H]3CCC4=CC(=O)CC[C@]4(C)[C@H]3C[C@@H](O)[C@]12C [DNER, 6,7-dihydroneridienone] |  |  |  |  |  |  |  |  | 9200 | 1400 |  |  |
| CCCCCCCCCCCCCCCCOP(=O)([O-])OCC[N+](C)(C)C [Miltefosine, miltefosine] |  | 0.55 ± 0.15 |  | 62.5 ± 4.95 | 1.1 ± 0.37 | 5.4 ± 0.42 |  |  |  |  | ~150 |  |
| NC[C@@H]1O[C@H](O[C@H]2[C@@H](O)[C@H](O[C@@H]3[C@@H](O)[C@H](N)C[C@H](N)[C@H]3O[C@H]3O[C@H](CO)[C@@H](O)[C@H](O)[C@H]3N)O[C@@H]2CO)[C@H](N)[C@@H](O)[C@@H]1O [Paromomycin, paromomycin] | >68 | 11.6 ± 0.42 | 22 ± 4.24 | >800 | 15.2 ± 4.67 | 59 ± 5.66 |  |  |  |  |  |  |
| C=CCN1CC[C@]23c4c5ccc(O)c4O[C@H]2/C(=N/N=C2\CC[C@@]4(O)[C@H]6Cc7ccc(O)c8c7[C@@]4(CCN6CC=C)[C@H]2O8)CC[C@@]3(O)[C@H]1C5 [naloxonazine] |  |  |  |  |  |  |  |  |  |  |  | found only against intracellular L. donovani amastigotes |
